In PMC5762315, “Inhibition of polo-like kinase 4 (PLK4): a new therapeutic option for rhabdoid tumors and pediatric medulloblastoma” (Oncotarget, 2017):
Values joined by “and” are separate entries in the source; they are usually repeats but may differ in a detail not shown here. Equal values may be shown once.

Experiments:
Experiment in all cases: biochemical
Type in all cases: biochemical
[1] = biological target: various kinases (Homo sapiens, UniProt P00533, G719C); details: EGFR (ErbB1) G719C
[2] = biological target: various kinases (Homo sapiens, UniProt P07949, V804L); details: kinase RET V804L; ZLYTE
[3] = biological target: various kinases (Homo sapiens, UniProt P16234, D842V); details: PDGFRA D842V
[4] = biological target: various kinases (Homo sapiens, UniProt P16591); details: FER
[5] = biological target: various kinases (Homo sapiens, UniProt P29597); details: kinase TYK2; ZLYTE
[6] = biological target: various kinases (Homo sapiens, UniProt P41279); details: MAP3K8 (COT)
[7] = biological target: T1, various kinases (Homo sapiens, UniProt P42681); details: kinase TXK; ZLYTE
T1 sequence (P42681 1-527): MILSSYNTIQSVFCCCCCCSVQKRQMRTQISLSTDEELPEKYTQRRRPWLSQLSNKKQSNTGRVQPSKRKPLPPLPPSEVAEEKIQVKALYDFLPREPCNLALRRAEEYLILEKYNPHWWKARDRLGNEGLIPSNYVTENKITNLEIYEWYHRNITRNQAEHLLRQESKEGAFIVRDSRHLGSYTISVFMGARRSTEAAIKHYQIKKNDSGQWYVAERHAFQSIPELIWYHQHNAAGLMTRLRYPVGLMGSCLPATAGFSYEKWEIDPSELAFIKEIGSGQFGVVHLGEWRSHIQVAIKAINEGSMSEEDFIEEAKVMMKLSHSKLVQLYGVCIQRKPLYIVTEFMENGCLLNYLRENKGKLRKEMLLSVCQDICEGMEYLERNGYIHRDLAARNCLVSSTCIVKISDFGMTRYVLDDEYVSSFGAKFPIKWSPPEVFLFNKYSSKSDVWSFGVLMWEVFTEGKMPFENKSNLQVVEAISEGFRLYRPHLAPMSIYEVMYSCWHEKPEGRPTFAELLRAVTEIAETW

[8] = biological target: various kinases (Homo sapiens, UniProt Q07002); details: CDK18/cyclin Y
[9] = biological target: various kinases (Homo sapiens, UniProt Q15759); details: MAPK11 (p38 beta)
[10] = biological target: various kinases (Homo sapiens, UniProt Q16566); details: CAMK4 (CaMKIV)
[11] = biological target: T2, various kinases (Homo sapiens, UniProt Q9BXA7); details: kinase STK22D (TSSK1); ZLYTE
T2 sequence (Q9BXA7 1-367): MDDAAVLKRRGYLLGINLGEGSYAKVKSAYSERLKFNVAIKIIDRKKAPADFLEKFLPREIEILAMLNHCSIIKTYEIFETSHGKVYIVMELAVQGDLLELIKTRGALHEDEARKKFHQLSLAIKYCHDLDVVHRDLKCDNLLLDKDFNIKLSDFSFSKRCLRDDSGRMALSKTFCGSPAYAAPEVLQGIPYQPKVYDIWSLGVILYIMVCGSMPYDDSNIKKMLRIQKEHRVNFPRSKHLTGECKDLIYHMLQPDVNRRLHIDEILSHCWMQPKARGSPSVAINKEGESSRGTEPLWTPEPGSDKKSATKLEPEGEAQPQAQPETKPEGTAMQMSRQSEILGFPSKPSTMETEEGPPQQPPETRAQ

[12] = biological target: various kinases (Homo sapiens, UniProt Q9Y4K4); details: MAP4K5 (KHS1)
Throughout, for % Inhibition Average: test concentration or dose not given here.
Throughout, for % Inhibition Duplicate #1: test concentration or dose not given here.
Throughout, for % Inhibition Duplicate #2: test concentration or dose not given here.

Sequence of various kinases (Homo sapiens, UniProt P29597) (P29597 whole entry): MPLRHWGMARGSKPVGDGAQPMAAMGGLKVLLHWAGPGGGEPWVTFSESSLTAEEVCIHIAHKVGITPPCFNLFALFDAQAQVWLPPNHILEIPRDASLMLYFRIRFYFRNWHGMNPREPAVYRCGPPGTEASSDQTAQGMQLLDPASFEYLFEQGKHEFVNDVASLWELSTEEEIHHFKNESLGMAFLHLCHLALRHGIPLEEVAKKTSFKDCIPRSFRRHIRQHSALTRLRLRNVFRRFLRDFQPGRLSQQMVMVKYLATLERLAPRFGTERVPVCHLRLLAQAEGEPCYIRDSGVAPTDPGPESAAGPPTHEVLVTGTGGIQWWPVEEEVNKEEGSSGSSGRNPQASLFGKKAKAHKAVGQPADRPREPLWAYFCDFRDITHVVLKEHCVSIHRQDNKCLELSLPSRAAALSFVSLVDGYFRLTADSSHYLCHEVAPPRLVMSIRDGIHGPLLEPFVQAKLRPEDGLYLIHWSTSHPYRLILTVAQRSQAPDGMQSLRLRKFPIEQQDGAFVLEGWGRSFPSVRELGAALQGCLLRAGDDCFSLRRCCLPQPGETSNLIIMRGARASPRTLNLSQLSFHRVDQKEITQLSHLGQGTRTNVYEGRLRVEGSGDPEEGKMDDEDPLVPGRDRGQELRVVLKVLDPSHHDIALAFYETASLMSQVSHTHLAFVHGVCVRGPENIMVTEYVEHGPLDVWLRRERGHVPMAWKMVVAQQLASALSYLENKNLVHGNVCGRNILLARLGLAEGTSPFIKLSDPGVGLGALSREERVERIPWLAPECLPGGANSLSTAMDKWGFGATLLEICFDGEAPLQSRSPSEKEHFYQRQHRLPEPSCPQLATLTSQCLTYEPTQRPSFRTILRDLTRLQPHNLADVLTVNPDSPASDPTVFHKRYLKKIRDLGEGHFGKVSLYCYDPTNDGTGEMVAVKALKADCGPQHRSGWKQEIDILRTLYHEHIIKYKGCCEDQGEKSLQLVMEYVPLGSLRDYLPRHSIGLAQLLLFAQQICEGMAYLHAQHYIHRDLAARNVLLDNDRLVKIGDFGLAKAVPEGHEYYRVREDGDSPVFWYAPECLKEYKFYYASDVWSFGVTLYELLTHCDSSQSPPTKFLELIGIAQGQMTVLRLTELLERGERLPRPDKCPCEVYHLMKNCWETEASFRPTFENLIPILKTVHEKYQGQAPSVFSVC
Sequence of various kinases (Homo sapiens, UniProt P07949, V804L) (P07949 29-1114 V804L): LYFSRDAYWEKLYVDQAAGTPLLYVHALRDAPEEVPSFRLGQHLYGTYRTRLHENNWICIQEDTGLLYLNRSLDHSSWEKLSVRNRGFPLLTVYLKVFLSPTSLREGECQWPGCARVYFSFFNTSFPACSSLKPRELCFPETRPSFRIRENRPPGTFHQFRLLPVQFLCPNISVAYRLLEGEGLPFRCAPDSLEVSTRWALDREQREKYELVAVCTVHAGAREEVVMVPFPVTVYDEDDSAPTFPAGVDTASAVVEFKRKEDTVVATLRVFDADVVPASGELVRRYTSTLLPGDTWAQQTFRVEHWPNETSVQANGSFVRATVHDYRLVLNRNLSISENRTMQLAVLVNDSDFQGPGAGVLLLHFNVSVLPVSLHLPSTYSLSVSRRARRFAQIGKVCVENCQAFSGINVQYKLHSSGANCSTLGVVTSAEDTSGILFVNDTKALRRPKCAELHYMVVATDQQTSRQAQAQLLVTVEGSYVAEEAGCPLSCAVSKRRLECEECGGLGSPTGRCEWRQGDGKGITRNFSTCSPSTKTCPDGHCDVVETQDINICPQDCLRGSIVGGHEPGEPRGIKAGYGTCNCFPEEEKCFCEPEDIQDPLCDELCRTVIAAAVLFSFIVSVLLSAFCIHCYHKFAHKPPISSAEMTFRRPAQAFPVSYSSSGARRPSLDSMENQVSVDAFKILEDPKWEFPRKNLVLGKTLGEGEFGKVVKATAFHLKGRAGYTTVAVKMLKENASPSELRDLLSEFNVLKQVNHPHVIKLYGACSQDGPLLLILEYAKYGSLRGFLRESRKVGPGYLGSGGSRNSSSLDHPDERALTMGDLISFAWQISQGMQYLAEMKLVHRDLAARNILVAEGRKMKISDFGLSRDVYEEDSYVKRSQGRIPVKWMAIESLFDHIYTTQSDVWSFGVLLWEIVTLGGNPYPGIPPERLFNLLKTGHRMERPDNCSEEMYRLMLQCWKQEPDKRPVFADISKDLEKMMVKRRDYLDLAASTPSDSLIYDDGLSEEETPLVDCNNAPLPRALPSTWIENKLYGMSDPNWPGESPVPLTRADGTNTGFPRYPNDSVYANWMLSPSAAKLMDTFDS
Sequence of various kinases (Homo sapiens, UniProt Q9Y4K4) (Q9Y4K4 whole entry): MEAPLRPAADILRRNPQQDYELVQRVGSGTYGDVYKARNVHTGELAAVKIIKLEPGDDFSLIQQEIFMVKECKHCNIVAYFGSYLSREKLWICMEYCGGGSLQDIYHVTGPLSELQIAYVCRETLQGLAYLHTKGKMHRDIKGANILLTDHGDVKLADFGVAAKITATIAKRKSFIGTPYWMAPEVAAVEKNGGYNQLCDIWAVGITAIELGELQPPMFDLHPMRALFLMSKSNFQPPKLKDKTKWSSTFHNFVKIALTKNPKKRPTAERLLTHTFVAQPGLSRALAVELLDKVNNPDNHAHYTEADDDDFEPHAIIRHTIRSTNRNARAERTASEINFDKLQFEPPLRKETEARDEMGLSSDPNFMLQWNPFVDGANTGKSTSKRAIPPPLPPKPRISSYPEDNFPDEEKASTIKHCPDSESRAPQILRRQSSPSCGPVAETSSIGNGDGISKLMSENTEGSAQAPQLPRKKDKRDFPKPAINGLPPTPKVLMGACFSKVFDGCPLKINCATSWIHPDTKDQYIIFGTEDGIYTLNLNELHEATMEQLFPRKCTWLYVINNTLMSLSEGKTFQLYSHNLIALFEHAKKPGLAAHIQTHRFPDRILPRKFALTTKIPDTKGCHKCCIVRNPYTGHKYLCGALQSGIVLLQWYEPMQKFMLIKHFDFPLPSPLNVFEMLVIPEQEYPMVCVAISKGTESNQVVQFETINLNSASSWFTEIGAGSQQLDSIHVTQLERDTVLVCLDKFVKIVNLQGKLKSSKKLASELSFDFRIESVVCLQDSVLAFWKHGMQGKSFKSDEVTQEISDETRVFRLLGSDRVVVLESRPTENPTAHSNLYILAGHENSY
Sequence of various kinases (Homo sapiens, UniProt P16591) (P16591 whole entry): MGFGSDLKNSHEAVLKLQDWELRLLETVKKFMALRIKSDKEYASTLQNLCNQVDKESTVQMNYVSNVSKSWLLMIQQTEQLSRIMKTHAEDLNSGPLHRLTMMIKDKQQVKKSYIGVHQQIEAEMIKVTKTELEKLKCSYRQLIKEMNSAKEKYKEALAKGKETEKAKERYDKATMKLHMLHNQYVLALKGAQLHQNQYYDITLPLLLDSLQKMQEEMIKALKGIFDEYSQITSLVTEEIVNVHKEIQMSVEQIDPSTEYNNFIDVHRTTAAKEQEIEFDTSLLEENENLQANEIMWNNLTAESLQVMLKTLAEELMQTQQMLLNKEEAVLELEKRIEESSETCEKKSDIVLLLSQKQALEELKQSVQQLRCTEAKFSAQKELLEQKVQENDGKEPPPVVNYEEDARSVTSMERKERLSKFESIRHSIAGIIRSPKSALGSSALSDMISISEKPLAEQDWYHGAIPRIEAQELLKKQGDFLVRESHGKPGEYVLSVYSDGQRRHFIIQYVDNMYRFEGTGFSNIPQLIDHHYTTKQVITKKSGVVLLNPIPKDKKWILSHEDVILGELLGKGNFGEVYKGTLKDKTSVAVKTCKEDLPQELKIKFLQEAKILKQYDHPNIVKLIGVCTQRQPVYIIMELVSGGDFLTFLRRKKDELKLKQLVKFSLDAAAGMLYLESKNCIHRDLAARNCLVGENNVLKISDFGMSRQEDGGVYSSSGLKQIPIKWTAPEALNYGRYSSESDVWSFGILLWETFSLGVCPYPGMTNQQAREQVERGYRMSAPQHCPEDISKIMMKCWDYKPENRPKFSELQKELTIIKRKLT
Sequence of various kinases (Homo sapiens, UniProt P16234, D842V) (P16234 24-1089 D842V): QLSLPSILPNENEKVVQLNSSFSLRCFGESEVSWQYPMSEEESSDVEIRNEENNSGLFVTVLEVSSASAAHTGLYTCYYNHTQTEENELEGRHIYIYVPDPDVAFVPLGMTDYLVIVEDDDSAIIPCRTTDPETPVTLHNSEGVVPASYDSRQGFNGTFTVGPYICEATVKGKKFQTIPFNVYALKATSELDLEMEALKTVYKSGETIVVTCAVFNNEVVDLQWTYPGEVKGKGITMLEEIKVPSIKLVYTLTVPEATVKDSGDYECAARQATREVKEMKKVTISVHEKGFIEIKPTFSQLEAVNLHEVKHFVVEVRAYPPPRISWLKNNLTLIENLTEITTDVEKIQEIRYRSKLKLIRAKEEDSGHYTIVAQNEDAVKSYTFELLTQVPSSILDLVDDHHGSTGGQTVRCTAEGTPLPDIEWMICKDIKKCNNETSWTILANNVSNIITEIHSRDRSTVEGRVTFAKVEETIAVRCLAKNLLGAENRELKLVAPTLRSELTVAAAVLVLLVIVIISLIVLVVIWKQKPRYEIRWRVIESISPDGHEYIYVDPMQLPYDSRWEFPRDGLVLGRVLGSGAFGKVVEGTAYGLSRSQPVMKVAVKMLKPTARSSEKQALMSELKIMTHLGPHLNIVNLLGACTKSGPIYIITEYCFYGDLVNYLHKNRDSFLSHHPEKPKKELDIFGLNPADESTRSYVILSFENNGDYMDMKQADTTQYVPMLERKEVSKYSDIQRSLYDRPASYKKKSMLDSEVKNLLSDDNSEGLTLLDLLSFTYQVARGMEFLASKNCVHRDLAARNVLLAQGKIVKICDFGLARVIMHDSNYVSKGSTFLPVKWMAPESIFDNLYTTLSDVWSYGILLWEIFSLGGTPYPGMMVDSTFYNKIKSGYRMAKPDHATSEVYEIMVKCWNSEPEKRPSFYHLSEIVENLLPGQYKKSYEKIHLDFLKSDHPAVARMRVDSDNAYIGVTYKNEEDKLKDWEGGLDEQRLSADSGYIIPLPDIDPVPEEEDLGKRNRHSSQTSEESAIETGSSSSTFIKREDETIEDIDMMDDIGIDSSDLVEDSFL

COc1ccc2c(c1)[C@]1(C[C@H]1c1ccc3c(/C=C/c4ccc(CN5C[C@@H](C)O[C@@H](C)C5)cc4)n[nH]c3c1)C(=O)N2 [CFI-400945]
% Inhibition [1]: 3% and 2% | % Inhibition Average [2]: 17% | % Inhibition Duplicate #1 [2]: 14% | % Inhibition Duplicate #2 [2]: 19% | % Inhibition [3]: 4% and 10% | % Inhibition [4]: 7% and 11% | % Inhibition Average [5]: 2% | % Inhibition Duplicate #1 [5]: 2% | % Inhibition Duplicate #2 [5]: 2% | % Inhibition [6]: 7% | % Inhibition Average [7]: 7% | % Inhibition Duplicate #1 [7]: 6% | % Inhibition Duplicate #2 [7]: 8% | % Inhibition [8]: 5% and 4% | % Inhibition [9]: 2% and 5% | % Inhibition [10]: 7% and -3% | % Inhibition Average [11]: 6% | % Inhibition Duplicate #1 [11]: 7% | % Inhibition Duplicate #2 [11]: 5% | % Inhibition [12]: 12% and 23%
